Data: patent US10858365B2, “Triazolo-pyrimidine compounds and uses thereof” (Dizal (Jiangsu) Pharmaceutical Co., Ltd., priority 2018, dated 2020)

Assays:
Format in all cases: cell-based
hA2a = hA2a (Homo sapiens (Human), UniProt P29274); assay: cAMP inhibition assay in hA2a/CHO cells; details: adenosine stimulation, read-out: cAMP & FLIPR IC50 (nM) hA2a
Description: (§1) hA2a/CHO, hA2b/CHO and mA2a/CHO (Genscript) were plated at 5×10^3 cells/well into 384-well polystyrene plates at the day of experiment. Compounds were pre-incubated with cells for 30 min at 37° C., 5% CO2. Then […] adenosine was added to the cells and incubated for 30 min at 37° C., 5% CO2. Detection reagent (CISBIO) was added and the plates were incubated for 60 min at room temperature. The signal was captured by Envision.
FLIPR™ and cAMP inhibition activities of exemplary compounds in different adenosine receptor over-expressing cell lines are shown in Table 4 below.

hA1 = hA1 (Homo sapiens (Human), UniProt P30542); assay: FLIPR inhibition assay in hADORA1/CHO (hA1 expressing) cells; details: hADORA1/CHO cells, FLIPR calcium, adenosine stimulation; read-out: cAMP & FLIPR IC50 (nM) hA1
Description: hADORA1/CHO (hA1 expressing) cells (Genscript) were plated at 1×10^4 cells/well into 384-well polystyrene plates one day before starting the experiment. On the day of experiment, the supernatant was discard and replaced with 40 µL of dye (FLIPR calcium 5 Assay Kit) per well and the plates were incubated for 60 mins at 37° C. plus 5% CO2. Then testing compounds were added at different concentrations for FLIPR™ inhibition assay. After a 400 s incubation with compound, […] adenosine was added into the cells, and the signal was captured by FLIPR.

mA2a = mA2a (Mus musculus (Mouse), UniProt Q60613); assay: cAMP inhibition assay in mA2a/CHO cells; details: adenosine stimulation, read-out: cAMP & FLIPR IC50 (nM) mA2a
Description: as §1

hA2b = hA2b (Homo sapiens (Human), UniProt P29275); assay: cAMP inhibition assay in hA2b/CHO cells; details: adenosine stimulation, read-out: cAMP & FLIPR IC50 (nM) hA2b
Description: as §1

hA2b, sequence (P29275 whole entry): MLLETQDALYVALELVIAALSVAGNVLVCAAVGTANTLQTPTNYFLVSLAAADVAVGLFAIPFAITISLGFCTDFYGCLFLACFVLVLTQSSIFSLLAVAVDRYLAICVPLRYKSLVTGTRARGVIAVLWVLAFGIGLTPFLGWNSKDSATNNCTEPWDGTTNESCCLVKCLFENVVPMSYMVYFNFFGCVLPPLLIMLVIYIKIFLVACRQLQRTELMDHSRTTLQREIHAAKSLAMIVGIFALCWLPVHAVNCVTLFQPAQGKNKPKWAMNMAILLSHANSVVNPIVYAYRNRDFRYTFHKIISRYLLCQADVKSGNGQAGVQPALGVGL
hA1, sequence (P30542 whole entry): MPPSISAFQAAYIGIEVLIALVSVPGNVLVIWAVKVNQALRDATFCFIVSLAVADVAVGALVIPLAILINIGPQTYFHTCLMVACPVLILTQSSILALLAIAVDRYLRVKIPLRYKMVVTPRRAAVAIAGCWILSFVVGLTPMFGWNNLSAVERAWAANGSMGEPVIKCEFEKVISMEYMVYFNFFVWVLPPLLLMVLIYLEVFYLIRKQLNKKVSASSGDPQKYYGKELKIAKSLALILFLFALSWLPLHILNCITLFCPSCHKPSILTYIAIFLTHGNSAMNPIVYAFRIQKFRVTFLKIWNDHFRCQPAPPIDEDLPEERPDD
hA2a, sequence (P29274 whole entry): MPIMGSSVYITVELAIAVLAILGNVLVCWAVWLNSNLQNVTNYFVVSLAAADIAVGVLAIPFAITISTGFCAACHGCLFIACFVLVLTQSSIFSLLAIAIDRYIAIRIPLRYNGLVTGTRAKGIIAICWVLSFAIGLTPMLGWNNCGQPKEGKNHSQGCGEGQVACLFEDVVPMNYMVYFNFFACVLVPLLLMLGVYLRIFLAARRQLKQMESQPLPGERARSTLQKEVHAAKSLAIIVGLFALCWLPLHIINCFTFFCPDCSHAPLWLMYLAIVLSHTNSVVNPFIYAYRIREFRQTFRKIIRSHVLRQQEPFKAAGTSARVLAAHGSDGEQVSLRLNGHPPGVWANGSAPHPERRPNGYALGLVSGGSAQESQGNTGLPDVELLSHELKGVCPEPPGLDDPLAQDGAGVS
mA2a, sequence (Q60613 whole entry): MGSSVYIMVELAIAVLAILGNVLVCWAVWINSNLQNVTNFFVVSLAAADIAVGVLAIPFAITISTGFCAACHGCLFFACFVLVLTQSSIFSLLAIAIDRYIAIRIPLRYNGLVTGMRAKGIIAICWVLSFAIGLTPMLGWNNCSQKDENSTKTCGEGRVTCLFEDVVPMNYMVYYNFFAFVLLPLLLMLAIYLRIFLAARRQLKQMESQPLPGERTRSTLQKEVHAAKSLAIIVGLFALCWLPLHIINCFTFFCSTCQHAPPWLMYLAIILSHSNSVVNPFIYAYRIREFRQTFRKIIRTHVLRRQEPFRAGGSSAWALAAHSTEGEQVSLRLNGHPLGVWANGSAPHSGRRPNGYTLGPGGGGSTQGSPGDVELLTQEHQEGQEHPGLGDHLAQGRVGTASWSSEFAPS

Row | SMILES | IC50 (hA2a) [nM] | IC50 (hA1) [nM] | IC50 (mA2a) [nM] | IC50 (hA2b) [nM]
1 | Cc1cnc2ccc(-c3c(-c4ncco4)nc(N)n4nc(CC5CCCO5)nc34)cn12 (single isomer, unassigned) [Example 106-1, 8-(3-methylimidazo[1,2-a]pyridin-6-yl)-7-(oxazol-2-yl)-2-((tetrahydrofuran-2-yl)methyl)-[1,2,4]triazolo[1,5-f]pyrimidin-5-amine] | 0.5 | 53.2 | – | –
2 | Cc1cnc2ccc(-c3c(-c4ncco4)nc(N)n4nc(CC5CCCO5)nc34)cn12 (single isomer, unassigned) [Example 106-2, 8-(3-methylimidazo[1,2-a]pyridin-6-yl)-7-(oxazol-2-yl)-2-((tetrahydrofuran-2-yl)methyl)-[1,2,4]triazolo[1,5-f]pyrimidin-5-amine] | 0.2 | 34.9 | – | –
3 | Cc1cnc2ccc(-c3c(-c4ncco4)nc(N)n4nc(CC5CCOC5)nc34)cn12 (single isomer, unassigned) [Example 107-1, 8-(3-methylimidazo[1,2-a]pyridin-6-yl)-7-(oxazol-2-yl)-2-((tetrahydrofuran-3-yl)methyl)-[1,2,4]triazolo[1,5-f]pyrimidin-5-amine] | 0.5 | 54.6 | 32.7 | 416
4 | Cc1cnc2ccc(-c3c(N4CCOC(C)C4)nc(N)n4nc(Cc5ncccc5F)nc34)cn12 (single isomer, unassigned; isomer 1) [Example 112-1, 2-((3-fluoropyridin-2-yl)methyl)-8-(3-methylimidazo[l,2-a]pyridin-6-yl)-7-(2-methylmorpholino)-[1,2,4]triazolo[1,5-c]pyrimidin-5-amine (isomer 1)] | 91.6 | 966 | – | –
5 | Cc1cnc2ccc(-c3c(N4CCOC[C@@H]4C)nc(N)n4nc(Cc5ncccc5F)nc34)cn12 (single isomer, unassigned; isomer 1) [Example 113-1, 2-((3-fluoropyridin-2-yl)methyl)-8-(3-methylimidazo[l,2-a]pyridin-6-yl)-7-(3-methylmorpholino)-[1,2,4]triazolo[1,5-c]pyrimidin-5-amine (isomer 1)] | 42.4 | 3270 | – | –
6 | Cc1cnc2ccc(-c3c(-c4ccc(F)cc4)nc(N)n4nc(CC5CCOC5)nc34)cn12 (single isomer, unassigned; isomer 2) [Example 105-2, 7-(4-fluorophenyl)-8-(3-methylimidazo[l,2-a]pyridin-6-yl)-2-((tetrahydrofuran-3-yl)methyl)-[1,2, 4]triazolo[1,5-c]pyrimidin-5-amine(isomer 2)] | – | 11.8 | – | 71.6
7 | Cc1cnc2ccc(-c3c(N4CCOC(C)C4)nc(N)n4nc(Cc5ncccc5F)nc34)cn12 (single isomer, unassigned; isomer 2) [Example 112-2, 2-((3-fluoropyridin-2-yl)methyl)-8-(3-methylimidazo[l,2-a]pyridin-6-yl)-7-(2-methylmorpholino)-[1,2,4]triazolo[1,5-c]pyrimidin-5-amine (isomer 2)] | 3.2 | 120 | – | –
8 | Cc1cnc2ccc(-c3c(N4CCOCC4C)nc(N)n4nc(Cc5ncccc5F)nc34)cn12 (single isomer, unassigned; isomer 2) [Example 113-2, 2-((3-fluoropyridin-2-yl)methyl)-8-(3-methylimidazo[1,2-a]pyridin-6-yl)-7-(3-methylmorpholino)-[1,2,4]triazolo[1,5-c]pyrimidin-5-amine (isomer 2)] | 73 | > 10000 | – | –
9 | COc1cc(-c2c(-c3ccc(F)cc3)nc(N)n3nc(Cc4c(F)cccc4F)nc23)ccn1 [Example 5, 2-(2,6-difluorobenzyl)-7-(4-fluorophenyl)-8-(2-methoxypyridin-4-yl)-[1,2,4]lriazolo[1,5-c] pyrimidin-5-amine] | 1.9 | – | 1.5 | –
10 | Cn1cc(-c2c(-c3ncco3)nc(N)n3nc(Cc4ncccc4OC(F)F)nc23)ccc1=O [Example 71, 5-(5-amino-2-[[3-(difluoromethoxy)pyridin-2-yl]methyl]-7-(1,3-oxazol-2-yl)-[1,2,4]triazolo[1,5-c]pyrimidin-8-yl)-1-methyl-1,2-dihydropyridin-2-one] | 11 | 8.9 | – | 102
11 | CN1CCC[C@H]1Cc1nc2c(-c3ccc4ncn(C)c4c3)c(-c3ccc(F)cc3)nc(N)n2n1 [Example 103, (S)-7-(4-fluorophenyl)-8-(1-methyl-1H-benzo[d]imidazol-6-yl)-2-((1-methylpyrrolidin-2-yl)methyl)-[1,2,4]triazolo[1,5-c]pyrimidin-5-amine] | 8.3 | 264 | 30.3 | –
12 | CN1CCC[C@@H]1Cc1nc2c(-c3ccc4ncn(C)c4c3)c(-c3ccc(F)cc3)nc(N)n2n1 [Example 104, (R)-7-(4-fluorophenyl)-8-(1-methyl-1H-benzo[d]imidazol-6-yl)-2-((1-methylpyrrolidin-2-yl)methyl)-[1,2,4]triazolo[1,5-c]pyrimidin-5-amine] | 1 | 34.1 | 5.7 | –
13 | Cc1cnc2ccc(-c3c(N4CCN(C)CC4)nc(N)n4nc(Cc5c(F)cccc5F)nc34)cn12 [Example 108, 2-(2,6-difluorobenzyl)-8-(3-methylimidazo[1,2-a]pyridin-6-yl)-7-{4-methylpiperazin-l-yl)-[1,2,4] triazolo[1,5-c]pyrimidin-5-amine] | 42.3 | 131 | – | –
14 | COC1CN(c2nc(N)n3nc(Cc4c(F)cccc4F)nc3c2-c2ccc3ncc(C)n3c2)C1 [Example 109, 2-(2,6-difluorobenzyl)-7-(3-methoxyazetidin-l-yl)-8-(3-methylimidazo[l,2-a]pyridin-6-yl)-[l,2,4] triazolo[1,5-c]pyrimidin-5-amine] | 3.5 | 30.6 | – | –
15 | Cc1cnc2ccc(-c3c(N4CC5(COC5)C4)nc(N)n4nc(Cc5ncccc5F)nc34)cn12 [Example 118, 2-((3-fluoropyridin-2-yl)methyl)-8-(3-methylimidazo[l,2-a]pyridin-6-yl)-7-(2-oxa-6-azaspiro[3.3)heptan-6-yl)-[l,2,4]triazolo[l,5-c]pyrimidin-5-a mine] | 228 | > 8090 | – | –
16 | Cc1cnc2ccc(-c3c(N4CCC4)nc(N)n4nc(Cc5ncccc5F)nc34)cn12 [Example 119, 7-(azetidin-l-yl)-2-((3-fluoropyridin-2-yl)methyl)-8-(3-methylimidazo[1,2-a]pyridin-6-yl)-[1,2,4] triazolo[1,5-c]pyrimidin-5-amine] | 1.9 | 48.6 | – | –
17 | Cc1cnc2ccc(-c3c(-c4ccc(F)cc4)nc(N)n4nc(C[C@H]5CCCN5C)nc34)cn12 [Example 125, (R)-7-(4-fluorophenyl)-8-(3-methylimidazo[l,2-a]pyrdin-6-yl)-2-((1-methylpyrrolidin-2-yl)methyl)-[l,2,4]triazolo[l,5-c]pyrimidin-5-amine] | 0.4 | 34.1 | – | –
18 | COCCc1nc2c(-c3ccc4ncc(C)n4c3)c(-c3ncco3)nc(N)n2n1 [Example 126, 2-(2-methoxyethyl)-8-(3-methylimidazo[l,2-a]pyridin-6-yl)-7-(oxazol-2-yl)-[1,2,4]triazolo[1,5-c]pyrimidin-5-amine] | 1.1 | 83.6 | – | –
